Measured values taken from ChEMBL document CHEMBL4828780, “Novel Compounds for Preventing SARS-CoV-2 Viral Replication and Treating COVID-19” (ACS Med Chem Lett, 2021).

Assay: Inhibition of SARS-CoV 3C-like protease using Dabcyl-KTSAVLQ-SGFRKME-Edans peptide as substrate incubated for 60 mins by FRET assay

| SMILES | Ki [nM] |
| --- | --- |
| COc1cccc2[nH]c(C(=O)N[C@@H](CC(C)C)C(=O)N[C@@H](C[C@@H]3CCNC3=O)C(=O)COC(=O)c3c(C)ncnc3C)cc12 | 0.928 |
| COc1cccc2[nH]c(C(=O)N[C@@H](CC(C)C)C(=O)N[C@@H](C[C@@H]3CCNC3=O)C(=O)COC(=O)[C@H]3CCCN3C)cc12 | 0.0321 |
| COc1cccc2[nH]c(C(=O)N[C@@H](CC(C)C)C(=O)N[C@@H](C[C@@H]3CCNC3=O)C(=O)COC(=O)[C@@H]3CCCN3C)cc12 | 2.47 |
| COc1cccc2[nH]c(C(=O)N[C@@H](CC(C)C)C(=O)N[C@@H](C[C@@H]3CCNC3=O)C(=O)COC(=O)[C@H]3CCCCN3C)cc12 | 1.42 |
| COc1cccc2[nH]c(C(=O)N[C@@H](CC(C)C)C(=O)N[C@@H](C[C@@H]3CCNC3=O)C(=O)COC(=O)c3ccncc3)cc12 | 0.598 |
| COc1cccc2[nH]c(C(=O)N[C@@H](CC(C)C)C(=O)N[C@@H](C[C@@H]3CCNC3=O)C(=O)COC(=O)CN(C)C)cc12 | 2.98 |
